In patent US20230027985A1, “SUBSTITUTED HYDANTOINAMIDES AS ADAMTS7 ANTAGONISTS” (Bayer Aktiengesellschaft, priority 2019, published 2023):

Assays:
[1] = target: T1, Purified recombinant ADAMTS-7 (rat prodomain/human catalytic domain, SEQ ID No. 01 or 02) (Homo sapiens, UniProt Q9UKP4); test: Assay for ADAMTS-7 enzymatic activity (FRET substrate cleavage); format: biochemical; settings: FRET substrate SEQ ID No. 11, 120 min at 32° C.; read-out: ADAMTS7-IC50
T1 construct: rat ADAMTS-7 signal peptide + prodomain (rat 1-217, Q1EHB3) (N); 2xStrep tag (C); 6xHis tag (C); made in house; host or cells: Expi293 cells
T1 sequence (Q9UKP4 237-537): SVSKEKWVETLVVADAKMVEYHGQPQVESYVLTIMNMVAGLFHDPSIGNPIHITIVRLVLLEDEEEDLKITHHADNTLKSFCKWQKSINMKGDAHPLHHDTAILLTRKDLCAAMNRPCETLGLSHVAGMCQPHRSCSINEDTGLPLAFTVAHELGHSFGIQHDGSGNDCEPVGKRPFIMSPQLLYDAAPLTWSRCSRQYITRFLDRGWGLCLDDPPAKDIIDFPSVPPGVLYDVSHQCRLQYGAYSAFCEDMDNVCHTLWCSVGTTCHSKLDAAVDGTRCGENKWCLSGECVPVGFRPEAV
Procedure, shortened: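 About 20 nM enzyme in 20 mM HEPES pH 8.0, 150 mM NaCl, 5 mM CaCl2, 0.004% Brij and 10 μM ZnCl2 was mixed with compound in DMSO and a QXL520-quenched FRET peptide from thrombospondin-1 (275-289). After 120 min at 32 °C, fluorescence was read at 485/520 nm. IC50 came from percent inhibition versus concentration.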

ADAMTS4 = target: T2, ADAMTS4 (Homo sapiens, UniProt O75173); test: Selectivity assay for ADAMTS-7 modulators (FRET), ADAMTS4; format: biochemical; settings: 50 nM enzyme (R&D 4307-AD), 1 μM Dabcyl/Edans FRET substrate, 120 min at 32° C.
T2 construct: purchased R&D 4307-AD
T2 sequence (O75173 213-685 limits assumed): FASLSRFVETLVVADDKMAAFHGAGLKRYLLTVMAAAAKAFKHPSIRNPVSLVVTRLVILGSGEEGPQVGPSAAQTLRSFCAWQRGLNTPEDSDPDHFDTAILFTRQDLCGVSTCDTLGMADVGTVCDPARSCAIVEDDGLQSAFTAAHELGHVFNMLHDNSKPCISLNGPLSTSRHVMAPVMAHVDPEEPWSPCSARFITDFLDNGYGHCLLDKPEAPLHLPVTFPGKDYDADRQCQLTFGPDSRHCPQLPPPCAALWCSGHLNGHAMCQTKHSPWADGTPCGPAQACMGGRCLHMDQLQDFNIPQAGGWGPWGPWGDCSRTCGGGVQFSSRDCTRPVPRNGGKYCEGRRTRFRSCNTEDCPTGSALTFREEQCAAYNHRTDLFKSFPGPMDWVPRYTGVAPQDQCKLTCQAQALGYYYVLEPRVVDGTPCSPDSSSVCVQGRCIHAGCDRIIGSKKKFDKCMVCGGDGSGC
Procedure, shortened: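 Enzyme in 50 mM Tris pH 7.5, 150 mM NaCl, 10 mM CaCl2, 0.05% Brij, preincubated with compound in DMSO; reaction started with FRET substrate. Fluorescence increase read after 120 min at 32° C; IC50 from percent inhibition versus compound concentration.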

| Structure (SMILES) | IC50 [1] | IC50 (ADAMTS4) |
| --- | --- | --- |
| O=C1NC(=O)C(CNC(=O)c2cnn(-c3ccc(F)cc3)n2)(C2CCCCC2)N1 (stereo not drawn) [Example 75, ent-N-[(4-cyclohexyl-2,5-dioxoimidazolidin-4-yl)methyl]-2-(4-fluorophenyl)-2H-1,2,3-triazole-4-carboxamide] | 14 nM | 4100 nM |
| CC(C)C1(CNC(=O)c2cnn(-c3ccc(F)cc3)n2)NC(=O)NC1=O (stereo not drawn) [Example 76, ent-N-[(2,5-dioxo-4-(propan-2-yl)imidazolidin-4-yl)methyl]-2-(4-fluorophenyl)-2H-1,2,3-triazole-4-carboxamide] | 8 nM | 2770 nM |
| O=C1NC(=O)C(CNC(=O)c2cnn(-c3ccc(F)cc3)n2)(C2CCC2)N1 (stereo not drawn) [Example 77, ent-N-[(4-cyclobutyl-2,5-dioxoimidazolidin-4-yl)methyl]-2-(4-fluorophenyl)-2H-1,2,3-triazole-4-carboxamide] | 24 nM | 4380 nM |
| CCCCC1(CNC(=O)c2cnn(-c3ccccc3)n2)NC(=O)NC1=O (stereo not drawn) [Example 78, ent-N-[(4-butyl-2,5-dioxoimidazolidin-4-yl)methyl]-2-phenyl-2H-1,2,3-triazole-4-carboxamide] | 191 nM | 19000 nM |
| O=C1NC(=O)C(CNC(=O)c2cnn(-c3ccccc3)n2)(C2CCC2)N1 (stereo not drawn) [Example 79, ent-N-[(4-cyclobutyl-2,5-dioxoimidazolidin-4-yl)methyl]-2-phenyl-2H-1,2,3-triazole-4-carboxamide] | 78 nM | 11000 nM |
| O=C1NC(=O)C(CNC(=O)c2nc(-c3ccccc3)no2)(CC2CC2)N1 (stereo not drawn) [Example 80, ent-N-[(4-(cyclopropylmethyl)-2,5-dioxoimidazolidin-4-yl)methyl]-3-phenyl-1,2,4-oxadiazole-5-carboxamide] | 250 nM | 2900 nM |
| CCCCC1(CNC(=O)c2cnn(-c3ccc(F)cc3)n2)NC(=O)NC1=O (stereo not shown) [Example 82] | 48 nM | 3100 nM |
| O=C1NC(=O)C(CNC(=O)c2cnn(-c3ccccc3)n2)(C2CCCC2)N1 (stereo not drawn) [Example 83, ent-N-[(4-cyclopentyl-2,5-dioxoimidazolidin-4-yl)methyl]-2-phenyl-2H-1,2,3-triazole-4-carboxamide] | 120 nM | 11000 nM |
| O=C1NC(=O)C(CNC(=O)c2cnn(-c3ccc(F)cc3F)n2)(C2CCC2)N1 (stereo not drawn) [Example 86, ent-N-{[4-cyclobutyl-2,5-dioxoimidazolidin-4-yl]methyl}-2-(2,4-difluorophenyl)-2H-1,2,3-triazole-4-carboxamide] | 63 nM | 8500 nM |
| O=C1NC(=O)C(CNC(=O)c2cnn(-c3cc(F)c(F)c(F)c3)n2)(C2CCC2)N1 (stereo not drawn) [Example 90, ent-N-[(4-cyclobutyl-2,5-dioxoimidazolidin-4-yl)methyl]-2-(3,4,5-trifluorophenyl)-2H-1,2,3-triazole-4-carboxamide] | 16 nM | 3100 nM |
| O=C1NC(=O)C(CNC(=O)c2cnn(-c3cccc(F)c3)n2)(C2CCC2)N1 (stereo not drawn) [Example 93, ent-N-[(4-cyclobutyl-2,5-dioxoimidazolidin-4-yl)methyl]-2-(3-fluorophenyl)-2H-1,2,3-triazole-4-carboxamide] | 8 nM | 2200 nM |
| O=C1NC(=O)C(CNC(=O)c2cnn(-c3ccc(F)c(F)c3)n2)(C2CCC2)N1 (stereo not drawn) [Example 94, ent-N-[(4-cyclobutyl-2,5-dioxoimidazolidin-4-yl)methyl]-2-(3,4-difluorophenyl)-2H-1,2,3-triazole-4-carboxamide] | 6 nM | 890 nM |
| O=C1NC(=O)[C@](CNC(=O)c2cnn(-c3cc(F)c(F)c(F)c3)n2)(C2CC2)N1 [Example 98, N-{[(4R)-4-cyclopropyl-2,5-dioxoimidazolidin-4-yl]methyl}-2-(3,4,5-trifluorophenyl)-2H-1,2,3-triazole-4-carboxamide] | 25 nM | 1100 nM |
| O=C1NC(=O)[C@](CNC(=O)c2cnn(-c3ncccc3F)n2)(C2CC2)N1 [Example 101, N-{[(4R)-4-cyclopropyl-2,5-dioxoimidazolidin-4-yl]methyl}-2-(3-fluoropyridin-2-yl)-2H-1,2,3-triazole-4-carboxamide] | 7 nM | 14000 nM |
| CCC(C)C1(CNC(=O)c2cnn(-c3ccc(F)cc3)n2)NC(=O)NC1=O (stereo not shown) [Example 102, diamix-N-[(4-sec-butyl-2,5-dioxoimidazolidin-4-yl)methyl]-2-(4-fluorophenyl)-2H-1,2,3-triazole-4-carboxamide] | 62 nM | 2900 nM |
| O=C1NC(=O)[C@](CNC(=O)c2cnn(-c3nc4ccccc4s3)n2)(C2CC2)N1 [Example 105, 2-(1,3-benzothiazol-2-yl)-N-{[(4R)-4-cyclopropyl-2,5-dioxoimidazolidin-4-yl]methyl}-2H-1,2,3-triazole-4-carboxamide] | 190 nM | 11000 nM |
| O=C1NC(=O)[C@](CNC(=O)c2cnn(-c3ccc(OC(F)(F)F)cc3)n2)(C2CC2)N1 [Example 106, N-{[(4R)-4-cyclopropyl-2,5-dioxoimidazolidin-4-yl]methyl}-2-[4-(trifluoromethoxy)phenyl]-2H-1,2,3-triazole-4-carboxamide] | 190 nM | > 50000 nM |
| O=C1NC(=O)C(CNC(=O)c2cnn(-c3ccc(F)cc3)n2)(c2nccs2)N1 (stereo not drawn) [Example 114, ent-N-{[2,5-dioxo-4-(1,3-thiazol-2-yl)imidazolidin-4-yl]methyl}-2-(4-fluorophenyl)-2H-1,2,3-triazole-4-carboxamide] | 15 nM | 1400 nM |
| CC(C)C1(CNC(=O)c2cnn(-c3cc(F)c(F)c(F)c3)n2)NC(=O)NC1=O (stereo not drawn) [Example 117, ent-N-[(4-isopropyl-2,5-dioxoimidazolidin-4-yl)methyl]-2-(3,4,5-trifluorophenyl)-2H-1,2,3-triazole-4-carboxamide] | 20 nM | 3300 nM |
| O=C1NC(=O)[C@](CNC(=O)c2cnn(-c3cnsc3)n2)(C2CC2)N1 [Example 132, N-{[(4R)-4-cyclopropyl-2,5-dioxoimidazolidin-4-yl]methyl}-2-(1,2-thiazol-4-yl)-2H-1,2,3-triazole-4-carboxamide] | 230 nM | 7400 nM |
| O=C1NC(=O)[C@](CNC(=O)c2cnn(-c3ncc(F)cc3F)n2)(C2CC2)N1 [Example 134, N-{[(4R)-4-cyclopropyl-2,5-dioxoimidazolidin-4-yl]methyl}-2-(3,5-difluoropyridin-2-yl)-2H-1,2,3-triazole-4-carboxamide] | 190 nM | 6200 nM |
| O=C1NC(=O)C(CNC(=O)c2cnn(-c3ccc(F)cc3)n2)(c2ncsc2C(F)(F)F)N1 (stereo not drawn) [Example 136, ent-N-({2,5-dioxo-4-[5-(trifluoromethyl)-1,3-thiazol-4-yl]imidazolidin-4-yl}methyl)-2-(4-fluorophenyl)-2H-1,2,3-triazole-4-carboxamide] | 27 nM | 3500 nM |
| Cn1ccnc1C1(CNC(=O)c2cnn(-c3ccccc3)n2)NC(=O)NC1=O (stereo not drawn) [Example 142, ent-N-{[4-(1-methyl-1H-imidazol-2-yl)-2,5-dioxoimidazolidin-4-yl]methyl}-2-phenyl-2H-1,2,3-triazole-4-carboxamide] | 4 nM | 320 nM |
